Experimental data taken from PubChem BioAssay (NCI).
Where “and” joins values, the source holds several entries; their conditions need not be identical. Equal values may be shown once.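 Step 1: Grow cells in 96-well plates. Step 2: Expose to compound for 48 hours at 5 concentrations. Step 3: Interpolate endpoints linearly; if unreached, use highest concentration. GI50 is the concentration that inhibits growth by half. TGI: total growth inhibition.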

Columns and labels:
P388 leukemia = assay: NCI tumour cell line growth inhibition, 48 h
SN12K1 renal = assay: NCI tumour cell line growth inhibition, 48 h

Question: `O=C(Nc1ccccc1)c1c(O)[nH]c(=S)[nH]c1=O` was tested. Which GI50 (P388 leukemia) did it give?
Answer: 67 µM

Question: And the TGI (P388 leukemia)?
Answer: 57.7 µM and > 250 µM

Question: And the GI50 (SN12K1 renal)?
Answer: 25.2 µM

Question: What about the TGI (SN12K1 renal) of the same compound?
Answer: 51.8 µM and 75.1 µM
